From patent US12522594B2, “2-heteroaryl-3-oxo-2,3-dihydropyridazine-4-carboxamides for the treatment of cancer” (Deutsches Krebsforschungszentrum, priority 2017, dated 2026) come the findings set out here.

Assay [1] addresses T1, AHR (Homo sapiens, UniProt P35869).
T1 sequence (P35869 11-848): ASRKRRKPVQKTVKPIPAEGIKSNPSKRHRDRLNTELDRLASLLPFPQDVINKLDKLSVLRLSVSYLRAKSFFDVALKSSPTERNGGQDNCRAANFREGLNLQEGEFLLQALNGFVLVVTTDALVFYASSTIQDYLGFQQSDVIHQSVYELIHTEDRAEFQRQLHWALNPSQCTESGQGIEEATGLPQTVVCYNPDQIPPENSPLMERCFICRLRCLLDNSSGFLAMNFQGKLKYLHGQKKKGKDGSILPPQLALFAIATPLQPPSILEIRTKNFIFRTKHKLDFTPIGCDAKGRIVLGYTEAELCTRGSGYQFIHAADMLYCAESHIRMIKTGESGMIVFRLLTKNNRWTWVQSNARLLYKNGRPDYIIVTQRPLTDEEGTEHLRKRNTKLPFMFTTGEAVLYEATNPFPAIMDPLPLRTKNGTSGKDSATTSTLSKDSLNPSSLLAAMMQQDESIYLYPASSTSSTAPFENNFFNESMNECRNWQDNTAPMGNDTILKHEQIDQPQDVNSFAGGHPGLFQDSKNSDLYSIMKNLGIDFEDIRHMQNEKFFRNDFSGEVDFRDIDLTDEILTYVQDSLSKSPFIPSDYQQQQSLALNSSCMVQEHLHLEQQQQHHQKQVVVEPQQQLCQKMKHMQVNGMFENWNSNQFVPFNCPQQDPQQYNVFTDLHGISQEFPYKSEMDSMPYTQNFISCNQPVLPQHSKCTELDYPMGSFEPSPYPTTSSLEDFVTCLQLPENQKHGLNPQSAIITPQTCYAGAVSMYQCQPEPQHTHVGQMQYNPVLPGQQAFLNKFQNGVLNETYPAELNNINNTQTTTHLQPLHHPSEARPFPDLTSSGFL
Nature of the assay: In vitro assay 3: AHR-regulated CYP1A1 expression in human cell line (U937, qPCR, KA stimulation). The class given is cell-based. Conditions: U937 cells, 200 uM KA, 6 hours, CYP1A1 expression by qPCR; read-out: Assay 3: Hum CYP1A1 Antagonism IC50. In outline:
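U937 human monocytic cells were stimulated with 200 uM KA for 6 h, with or without compound at eight concentrations from 1 nM to 3 uM, in duplicate. CYP1A1 mRNA was quantified by Taqman qPCR as fold expression normalised to HPRT. Unstimulated cells served as negative control.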
(In general: In qPCR the cycle at which signal appears reflects the starting amount.)

A further assay has as its system human monocytes. Nature of the assay: In vitro assay 4: rescue of TNFα production from human primary monocytes (LPS + KA). The class given is cell-based. Conditions: one value per donor; for Individual Donors Conc of highest rescue: concentration (of 1, 0.3, 0.1 uM tested) at which highest TNFα rescue was observed; for Individual Donors % rescue TNFα normalised to ref cmpd: human monocytes, 10 ng/mL LPS + 200 uM KA, 18 hours, highest percent rescue relative to highest rescue with GNF-351. The protocol:
In Vitro Assay 4: Rescue of TNFα Production from Human Primary Monocytes
The ability of the substances to enhance immune cell activity was determined. The substances were tested for their capacity to reverse KA-induced inhibition of TNFα production by LPS-stimulated human monocytes. Human monocytes were purified by negative selection from donor PBMCs using Miltenyi beads and seeded at 2×10^5 cells/well in complete growth medium (RPMI 1640, 10% FCS). Monocytes were incubated with 10 ng/mL LPS (O127:B8, #L4516, Sigma) and 200 uM KA (#3375, Sigma) and substances were added at concentrations of 1 uM, 0.3 uM and 0.1 uM and cultured for 18 hours. LPS alone served as the positive control. TNFα production in the supernatant was measured by Meso Scale Discovery immunoassay and the ability of the substances to rescue TNFα production was calculated as a percentage of LPS stimulation and KA-induced inhibition and normalized to the donor-specific response with the reference AHR antagonist compound GNF-351 (Smith et al., J Pharmacol Exp Ther, 2011, 338(1):318-27).

For assay [2], the target named is T1, AHR. Nature of the assay: In vitro assay 1: antagonism in human cell line (transactivation assay, U87 cells prestimulated with kynurenic acid, DRE firefly luciferase reporter). The class given is cell-based. More on the design: host or cells: U87 glioblastoma cells, stably transfected with DRE firefly luciferase and renilla reporter constructs. The note with it: 150 uM kynurenic acid, 20 hours, read-out: Assay 1: AHR-luc Hum Antagonism IC50. In outline: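 Antagonism measured after kynurenic acid prestimulation in U87 cells that express AHR endogenously and stably harbor a firefly luciferase gene under DRE control plus a constitutive renilla construct. Positive and negative controls served for normalization.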
(A reporter such as luciferase makes a cellular process visible.)

Assay [3] deals with T1, AHR. Nature of the assay: In vitro assay 2: agonism in human cell line (transactivation assay, U87 cells, DRE firefly luciferase reporter). Type of assay: cell-based. More on the design: host or cells: U87 glioblastoma cells, stably transfected with DRE firefly luciferase and renilla reporter constructs. Conditions: no kynurenic acid, 20 hours, read-out: Assay 2: AHR-luc Hum Agonism IC50. Summed up: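 Agonist readout: DRE firefly luciferase, with constitutive renilla reporter, in stably transfected U87 cells expressing AHR endogenously. Normalization used positive control (300 uM kynurenic acid) and negative control.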

In assay [4] the test system is B16F10-OVA cells. Nature of the assay: In vivo assay: efficacy of an example compound and a CTLA4 axis antagonist, B16F10-OVA tumor in C57/BL6J mice. More on the design: species or system mouse. The note with it: tumor volume treatment/control; single agent plus vehicle or isotype; AhR antagonist 30 mg/kg QD p.o.; aCTLA4 1 mg/kg q3d i.p. On the procedure:
In Vivo Assay: Efficacy of Compositions Comprising an Example Compound and a CTLA4 Axis Antagonist
Animals are ordered from Charles River Sulzfeld, Germany and assigned to the study at the age of 8 weeks. Animal husbandry, feeding and health conditions are according to animal welfare guidelines. B16F10-OVA cells are B16F10 mouse melanoma cells that were virally transduced to express ovalbumin. B16F10-OVA cells were cultivated with RPMI 1640 with 10% FCS+2.5 μg/ml blasticidin and splitted at least 3 times before inoculation. The antibiotic blasticidin is removed 1 passage before inoculation. Female C57/BL6J mice were inoculated with 10000 B16F10-OVA tumor cells in 50% medium/50% matrigel subcutaneously in the flank. After 7 days the animals were randomized and therapeutic treatment started on day 8. The AhR antagonists were dissolved in Ethanol/Solutol/Water (10/40/50) and given at 30 mg/kg, QD, p.o. The anti-CTLA4 antibody was dosed at 1 mg/kg, q3d, i.p. The anti-CTLA4 antibody is mouse-specific with syrian hamster IgG1 isotype (Clone: 9H10 (anti mouse CTLA4), Fa. BioXCell BE0131). […]
Tumor size was measured using calipers determining length (a) and width (b). Tumor volume was calculated according to: […]
Based on tumor volume efficacy was calculated dividing tumor volume of the respective treatment group by tumor volume of the control group (T/C).

Assay [5] relates to B16F10-OVA cells. In words: In vivo assay: efficacy of an example compound and a PD-1/-L1 axis antagonist, B16F10-OVA tumor in C57/BL6N mice. More on the design: species or system mouse. Conditions: tumor volume treatment/control; single agent plus vehicle or isotype; AhR antagonist 30 mg/kg QD p.o.; aPDL1 (TPP-3911) 10 mg/kg q3d i.p.
Text: In Vivo Assay: Efficacy of Compositions Comprising an Example Compound and a PD-1/-L1 Axis Antagonist
Animals are ordered from Charles River Sulzfeld, Germany and assigned to the study at the age of 7 weeks. Animal husbandry, feeding and health conditions are according to animal welfare guidelines. B16F10-OVA cells are B16F10 mouse melanoma cells that were virally transduced to express ovalbumin. […] The antibiotic blasticidin is removed 1 passage before inoculation. Female C57/BL6N mice were inoculated with 100000 B16F100VA tumor cells in 50% medium/50% matrigel subcutaneously in the flank. After 5 days the animals were randomized and therapeutic treatment started.
The anti-PDL1 antibody is a chimera of the variable domain of atezolizumab with murine IgG1 CH1, 2 and 3 domains.

As usually defined, the IC50 is the point on the concentration scale where inhibition reaches its midpoint.

Values joined by “and” are separate entries in the source; they are usually repeats but may differ in a detail not shown here. Identical values can stand only once.

As for `Cc1ccc(-c2cc(C(=O)NCC(O)C(F)(F)F)c(=O)n(-c3cnn(C)c3)n2)cc1` (single isomer, unassigned; enantiomer 2) [Example 12, (+)-6-(4-Methylphenyl)-2-(1-methyl-1H-pyrazol-4-yl)-3-oxo-N-(3,3,3-trifluoro-2-hydroxypropyl)-2,3-dihydropyridazine-4-carboxamide, Enantiomer 2], the half-maximal inhibitory concentration (IC50) at AHR [1] was 18.5 nM; at AHR [2], 23.2 nM; on AHR [3] it was greater than 20000 nM. Besides, the “Individual Donors Conc of highest rescue” value with human monocytes is 0.1 μM (2×) and 1 μM and 0.3 μM. Besides, the “Individual Donors % rescue TNFα normalised to ref cmpd” value in the assay with human monocytes is 74% and 122% and 213% and 109%.
As to `CC(C)[C@@H](CO)NC(=O)c1cc(-c2ccc(Cl)cc2)nn(-c2cnn(C)c2)c1=O` [Example 16, 6-(4-Chlorophenyl)-N-[(2S)-1-hydroxy-3-methylbutan-2-yl]-2-(1-methyl-1H-pyrazol-4-yl)-3-oxo-2,3-dihydropyridazine-4-carboxamide], the IC50 was 2.49 nM at AHR [1], 3.69 nM at AHR [2] and greater than 20000 nM at AHR [3]. In addition, the “Individual Donors Conc of highest rescue” value in the assay on human monocytes amounted to 1 µM. In addition, the “Individual Donors % rescue TNFα normalised to ref cmpd” value in the assay with human monocytes was 249% and 165%.
In the case of `Cn1cc(-n2nc(-c3ccc(Cl)cc3)cc(C(=O)NCC(O)C(F)F)c2=O)cn1` (single isomer, unassigned; (-)) [Example 22, (−)-6-(4-Chlorophenyl)-N-(3,3-difluoro-2-hydroxypropyl)-2-(1-methyl-1H-pyrazol-4-yl)-3-oxo-2,3-dihydropyridazine-4-carboxamide], the half-maximal inhibitory concentration (IC50) at AHR [1] is 11.2 nM; at AHR [2], 20 nM; on AHR [3] it was greater than 20000 nM. For the same molecule, the “Individual Donors Conc of highest rescue” value in the assay with human monocytes came to 1 µM. Further, in the assay on human monocytes, the “Individual Donors % rescue TNFα normalised to ref cmpd” value is 66% and 71%.
`Cc1ccc(-c2cc(C(=O)NCC(O)C(F)F)c(=O)n(-c3cnn(C)c3)n2)cc1` (stereo not shown) [Example 13, N-(3,3-Difluoro-2-hydroxypropyl)-6-(4-methylphenyl)-2-(1-methyl-1H-pyrazol-4-yl)-3-oxo-2,3-dihydropyridazine-4-carboxamide]: the IC50 is 20 nM on AHR [1], 32.5 nM on AHR [2] and greater than 20000 nM on AHR [3]. In the assay on human monocytes, the “Individual Donors Conc of highest rescue” value is 1 µM. Moreover, the “Individual Donors % rescue TNFα normalised to ref cmpd” value with human monocytes was 24% and 85%.
For the molecule `CCC(CO)NC(=O)c1cc(-c2ccc(C)cc2)nn(-c2cnn(C)c2)c1=O` (single isomer, unassigned) [Example 5, N-(1-Hydroxybutan-2-yl)-6-(4-methylphenyl)-2-(1-methyl-1H-pyrazol-4-yl)-3-oxo-2,3-dihydropyridazine-4-carboxamide], the 50% inhibitory concentration (IC50) on AHR [1] was 3.45 nM; on AHR [2] it was 5.99 nM; on AHR [3], greater than 20000 nM. For the same molecule, the “Individual Donors Conc of highest rescue” value with human monocytes came out at 1 µM. The “Individual Donors % rescue TNFα normalised to ref cmpd” value with human monocytes is 67% and 99% and 61%.
For the molecule `O=C(NC[C@@H](O)CO)c1cc(-c2ccc(C(F)(F)F)cc2)nn(-c2cccnc2)c1=O` [Example 113, N-[(2R)-2,3-Dihydroxypropyl]-3-oxo-2-(pyridin-3-yl)-6-[4-(trifluoromethyl)phenyl]-2,3-dihydropyridazine-4-carboxamide], the IC50 on AHR [1] was 105 nM; at AHR [2] it was 48.3 nM; at AHR [3] it was greater than 20000 nM. For the same molecule, the “Individual Donors Conc of highest rescue” value in the assay on human monocytes was found to be 1 µM. In the assay on human monocytes, the “Individual Donors % rescue TNFα normalised to ref cmpd” value is 91% and 51%.
In the case of `O=C(NC[C@H](O)C(F)(F)F)c1cc(-c2ccc(OC(F)(F)F)cc2)nn(-c2cccnc2)c1=O` [Example 131, 3-Oxo-2-(pyridin-3-yl)-N-[(2S)-3,3,3-trifluoro-2-hydroxypropyl]-6-[4-(trifluoromethoxy)phenyl]-2,3-dihydropyridazine-4-carboxamide], the half-maximal inhibitory concentration (IC50) is 7.29 nM at AHR [1], 6.23 nM on AHR [2] and greater than 20000 nM on AHR [3]. Moreover, in the assay on B16F10-OVA cells [4], the T/C amounted to 1.05.
As for `Cn1cc(-n2nc(-c3ccc(OC(F)(F)F)cc3)cc(C(=O)N[C@H](CO)C(F)(F)F)c2=O)cn1` [Example 47, 2-(1-Methyl-1H-pyrazol-4-yl)-3-oxo-N-[(2R)-1,1,1-trifluoro-3-hydroxypropan-2-yl]-6-[4-(trifluoromethoxy)phenyl]-2,3-dihydropyridazine-4-carboxamide], the half-inhibitory concentration (IC50) on AHR [1] is 1.66 nM; on AHR [2], 1.52 nM; on AHR [3], greater than 20000 nM. The “Individual Donors Conc of highest rescue” value in the assay with human monocytes turned out to be 1 µM. Moreover, the “Individual Donors % rescue TNFα normalised to ref cmpd” value with human monocytes is 68% and 64%.
As for `C[C@@H](CO)NC(=O)c1cc(-c2ccc(Cl)cc2)nn(-c2cnn(C)c2)c1=O` [Example 17, 6-(4-Chlorophenyl)-N-[(2S)-1-hydroxypropan-2-yl]-2-(1-methyl-1H-pyrazol-4-yl)-3-oxo-2,3-dihydropyridazine-4-carboxamide], the “Individual Donors Conc of highest rescue” value in the assay with human monocytes amounted to 1 µM. Besides, the “Individual Donors % rescue TNFα normalised to ref cmpd” value in the assay with human monocytes was 438% and 296%. The figures for the T/C in the assay on B16F10-OVA cells [5] and in the assay with B16F10-OVA cells [4] were 0.92 and 0.90, respectively.
